Earlier results as cited in patent US20070225340A1, “Phenyl Compounds And Their Use In The Treatment Of Conditions Mediated By The Action Of Pge2 At The Ep1 Receptor” (Glaxo Group Limited, priority 2004, published 2007).

Legend:
EP1 receptor [1] = biological target: T1, EP1 receptor (Rattus norvegicus, UniProt P70597); design: host or cells: living rat (in vivo pain model); conditions: chronic constriction injury, Anesthesia and Analgesia 2001, 93, 1012-7
T1 sequence (P70597 1-405): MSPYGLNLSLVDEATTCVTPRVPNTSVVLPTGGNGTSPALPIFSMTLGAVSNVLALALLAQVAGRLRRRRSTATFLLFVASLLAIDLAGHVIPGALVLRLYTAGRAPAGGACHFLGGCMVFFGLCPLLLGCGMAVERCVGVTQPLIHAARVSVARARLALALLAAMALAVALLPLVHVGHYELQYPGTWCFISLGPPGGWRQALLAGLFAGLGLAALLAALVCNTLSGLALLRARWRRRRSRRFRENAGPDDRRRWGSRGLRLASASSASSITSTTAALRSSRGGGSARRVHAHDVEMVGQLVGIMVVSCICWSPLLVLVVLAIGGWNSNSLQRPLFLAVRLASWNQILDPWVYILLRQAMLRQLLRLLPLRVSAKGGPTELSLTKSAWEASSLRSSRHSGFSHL

EP1 receptor [2] = biological target: T1, EP1 receptor; design: host or cells: living rodent (in vivo pain model); conditions: rodent, post-operative pain; Anesthesia and Analgesia 2001, 92, 233-238

SMILES: Cc1cc(Cl)ccc1S(=O)(=O)NC[C@H]1C2CCC(CC2)[C@@H]1/C=C\CCCC(=O)O [ONO-8711]
- effect on hyperalgesia and allodynia (EP1 receptor [1]): reduces hyperalgesia and allodynia
- effect on mechanical hyperalgesia (EP1 receptor [2]): inhibits mechanical hyperalgesia
